In ChEMBL document CHEMBL1240320, “Antibacterial lysine analogs that target lysine riboswitches” (Nat Chem Biol, 2007) one finds Kd, MIC and Activity data, which are given here for 14 compounds.

What is called pKd is the negative decadic logarithm of the Kd, by convention in mol/L. Read a low pKd as a high Kd. As usually defined, the MIC is the least concentration at which growth counts as inhibited.

The target in test [1] is Nucleic Acid. Description: Binding affinity to Bacillus subtilis 168 1A1 lysine riboswitch 179 lysc by in-line probing assay. The test is classed as nucleic-acid assay, Bacillus subtilis subsp. subtilis str. 168.
The subject of test [2] is Bacillus subtilis. The experiment in a line: Antibacterial activity against Bacillus subtilis 168 1A1 after 24 hrs by CLSI method. Format: functional.
Test [3] has as its system Bacillus subtilis. Description: Antibacterial activity against wild type Bacillus subtilis 168 1A1 assessed as inhibition of viable spore formation at 2 mM after 22 to 24 hrs. Format: functional, subsp. subtilis str. 168 1A1.
Test [4] relates to Bacillus subtilis. Description: Antibacterial activity against Bacillus subtilis 168 1A1 at 100 uM after 24 hrs by CLSI method. Format: functional, organism-based. The following applies: subsp. subtilis str. 168 1A1.
The test system of test [5] is Bacillus subtilis. Description: Antibacterial activity against Bacillus subtilis 1A40 at 1 mM after 3 hrs by CLSI method. The test is classed as functional, organism-based.
Test [6] has as its system Bacillus subtilis. The experiment in a line: Antibacterial activity against Bacillus subtilis 168 M1 harboring G163A mutation in P4 motif after 24 hrs by CLSI method. Format: functional.
Test [7] relates to Bacillus subtilis. Description: Antibacterial activity against Bacillus subtilis 168 M2 harboring adenosine deletion within 95 to 97 sequence in loop E of P2 motif after 24 hrs by CLSI method. Format: functional.
For test [8], the system named is Bacillus subtilis. Description: Antibacterial activity against wild type Bacillus subtilis 168 1A1 assessed as inhibition of viable spore formation at 0.2 mM after 22 to 24 hrs. Format: functional, subsp. subtilis str. 168 1A1.
Test [9] has as its target Nucleic Acid. The experiment in a line: Binding affinity to Bacillus subtilis 168 1A1 lysine riboswitch 179 lysc. Format: nucleic-acid assay, Bacillus subtilis subsp. subtilis str. 168.
The target of test [10] is Nucleic Acid. The experiment in a line: Binding affinity to lysine riboswitch 179 lysc of Bacillus subtilis 168 M1 harboring G163A mutation in P4 motif. The test is classed as nucleic-acid assay, Bacillus subtilis subsp. subtilis str. 168.
For test [11], the target named is Nucleic Acid. Description: Binding affinity to lysine riboswitch 179 lysc of Bacillus subtilis 168 M2 harboring adenosine deletion within 95 to 97 sequence in loop E of P2 motif. Format: nucleic-acid assay, Bacillus subtilis subsp. subtilis str. 168.
Test [12] has as its system Bacillus subtilis. The experiment in a line: Antibacterial activity against L-4-oxalysine-resistant Bacillus subtilis 168 M2 assessed as inhibition of viable spore formation at 2 mM after 22 to 24 hrs. Format: functional, subsp. subtilis str. 168 M2.
[13] abbreviates: subsp. subtilis str. 168 1A1, 24 h.
[14] abbreviates: subsp. subtilis str. 168 M1, 24 h.
[15] abbreviates: subsp. subtilis str. 168 M2, 24 h.

pKd: −log10 of the molar value. Values after ≈ are worked out from the molar mass of the structure shown. Active and inactive are the calls of the source. No cut-off for these calls is given here.

In the case of `Nc1cc(C[C@H](N)C(=O)O)ccc1O`, the pKd on Nucleic Acid [1] was less than 3.00. In the test on Bacillus subtilis [2] (setting [13]), this compound displayed a minimum inhibitory concentration (MIC) greater than 5 mM. Also, the Activity with Bacillus subtilis [3] came to 75%.
Consider `CC(=O)NCCCC[C@H](N)C(=O)O`, for which, on Nucleic Acid [1], the pKd is less than 3.00. The MIC in the test on Bacillus subtilis [2] (setting [13]) was greater than 5 mM.
As to `NCCSC[C@H](N)C(=O)O`, in the test on Nucleic Acid [1] (subsp. subtilis str. 168 1A1), the result was Active.
`CC(=N)NCCCC[C@H](N)C(=O)O` [L-NIL] gave a pKd at Nucleic Acid [1] of 4.96. Besides, in the test with Bacillus subtilis [4], the result was inactive. The MIC against Bacillus subtilis [2] (setting [13]) was greater than 5 mM.
In turn, `C[N+](C)(C)CCCC[C@H](N)C(=O)O` [TRIMETHYLLYSINE] gave a pKd at Nucleic Acid [1] of less than 3.00. In the test on Bacillus subtilis [2] (setting [13]), the MIC is greater than 5 mM.
In the same order, the values of `CN[C@@H](CCCCN)C(=O)O` are less than 3.00 and greater than 5 mM.
Consider `NC/C=C/CC(N)C(=O)O` (racemic), for which the pKd at Nucleic Acid [1] was 6.01. Further, the result in the test on Bacillus subtilis [4] and in the test with Bacillus subtilis [5] was Active. Further, the MIC against Bacillus subtilis [6] (setting [14]) is greater than 5 mM; in the test with Bacillus subtilis [7] (setting [15]), greater than 5 mM; in the test on Bacillus subtilis [2] (setting [13]), 0.938 mM (≈ 135 µg/mL).
Consider `NCCOC[C@H](N)C(=O)O`, for which the pKd on Nucleic Acid [1] was 4.89; on Nucleic Acid [9] it was 4.59; on Nucleic Acid [10], 4.54; on Nucleic Acid [11], 4.12. In addition, the outcome in the test with Bacillus subtilis [4] and with Bacillus subtilis [5] was Active. Besides, the Activity with Bacillus subtilis [8] worked out at 71%; in the test with Bacillus subtilis [3], 6%; with Bacillus subtilis [12], 65%. In addition, the MIC against Bacillus subtilis [6] (setting [14]) was determined as 1.56 mM (≈ 231 µg/mL); against Bacillus subtilis [7] (setting [15]), 1.56 mM (≈ 231 µg/mL); with Bacillus subtilis [2] (setting [13]) it was 0.173 mM (≈ 25.6 µg/mL).
On to `Nc1ccccc1C(=O)C[C@H](N)C(=O)O` [L-KYNURENINE], for which the pKd at Nucleic Acid [1] was less than 3.00. In the test on Bacillus subtilis [2] (setting [13]), this compound displayed an MIC greater than 5 mM.
For the compound `NCCS(=O)(=O)C[C@H](N)C(=O)O`, the negative logarithm of the Kd (pKd) on Nucleic Acid [1] was 5.60; at Nucleic Acid [9], 4.89; at Nucleic Acid [10], 4.85; on Nucleic Acid [11], 4.62. Besides, the outcome in the test on Bacillus subtilis [4] and with Bacillus subtilis [5] was Active. In addition, the figures for the Activity in the test on Bacillus subtilis [8], in the test on Bacillus subtilis [3] and with Bacillus subtilis [12] were 7%, 0% and 17%, respectively. In addition, the MIC in the test on Bacillus subtilis [6] (setting [14]) was determined as 1.56 mM (≈ 306 µg/mL); against Bacillus subtilis [7] (setting [15]) it was 3.44 mM (≈ 675 µg/mL); against Bacillus subtilis [2] (setting [13]) it was 0.026 mM (≈ 5.1 µg/mL).
As for `NCCCC[C@H](N)C(=O)O` [LYSINE], the pKd is 6.44 at Nucleic Acid [1], 5.77 on Nucleic Acid [9], 5.52 at Nucleic Acid [10] and 5.54 at Nucleic Acid [11]. Further, the outcome in the test on Bacillus subtilis [5] was inactive. The MIC result with Bacillus subtilis [6] (subsp. subtilis str. 168 M1), in the test on Bacillus subtilis [7] (subsp. subtilis str. 168 M2) and in the test on Bacillus subtilis [2] (subsp. subtilis str. 168 1A1) was “inactive” each time.
Take `NCC(=O)CCC(N)C(=O)O` (racemic): the pKd at Nucleic Acid [1] was less than 3.00. Moreover, the minimum inhibitory concentration (MIC) against Bacillus subtilis [2] (setting [13]) was greater than 5 mM. Also, the Activity stood at 47% in the test with Bacillus subtilis [3] and 9% in the test with Bacillus subtilis [12].
In turn, `N=C(N)NCCCC[C@H](N)C(=O)O` showed a pKd on Nucleic Acid [1] of 5.15. Also, the outcome with Bacillus subtilis [5] was inactive. The MIC against Bacillus subtilis [2] (setting [13]) is greater than 5 mM.
For the compound `CC(=O)N[C@@H](CCCCN)C(=O)O`, at Nucleic Acid [1], the negative-log Kd (pKd) was less than 3.00. Further, in the test on Bacillus subtilis [2] (setting [13]), the MIC is greater than 5 mM.
